Legend:
[1] = system: human cancer cell lines (NCI60); assay: Treatment of human cancer cell lines with NVX-412 (NCI screening procedure, SRB staining); type: cell-based
Experimental: Treatment of various cancer cell lines with NVX-412. Over 60 human cancer cell lines were treated with NVX-412 according to procedures detailed by the National Cancer Institute Developmental Therapeutics Program (see dtp.nci.nih.gov/branches/btb/ivclsp.html) and Shoemaker R H (Nat. Rev. Cancer, 6, 813-823, (2006)) and references cited therein. Many of the cell lines tested are available from the American Type Culture Collection (Rockville, Md., USA). The melanoma cell line 518A2 has been described previously (Jansen et al., “Activated N-Ras Contributes to the Chemoresistance of Human Melanoma in Severe Combined Immunodeficiency (SCID) Mice by Blocking Apoptosis,” Cancer Research 57, 362-65 (1997)). A typical screening of cancer cell treatment by NVX-412 employed the following procedure.
The human tumor cell lines of the cancer screening panel were grown in RPMI 1640 medium containing 5% fetal bovine serum and 2 mM L-glutamine. For a typical screening experiment, cells were inoculated into 96 well microtiter plates in 100 μL at plating densities ranging from 5,000 to 40,000 cells/well depending on the doubling time of individual cell lines. After cell inoculation, the microtiter plates were incubated at 37° C. in 5% CO2/95% air at 100% relative humidity for 24 hours prior to the addition of NVX-412. […]
Following the addition of NVX-412, the plates were incubated for an additional 48 hours at 37° C. in 5% CO2/95% air at 100% relative humidity. […] Bound stain was subsequently solubilized with 10 mM trizma base, and the absorbance was read on an automated plate reader at a wavelength of 515 nm. […] Using the seven absorbance measurements [time zero (Tz), control growth (C), and test growth in the presence of NVX-412 at the five concentration levels (Ti)], the percentage growth was calculated at each of the NVX-412 concentration levels. Percentage growth inhibition was calculated as: [(Ti−Tz)/(C−Tz)]*100 for concentrations for which Ti≧Tz [(Ti−Tz)/Tz]*100 for concentrations for which Ti<Tz.
Three dose response parameters were calculated. […]

[2] = system: TC71luc Ewing tumor cell line; assay: Ewing's sarcoma cell viability by luminescence, TC71luc; type: cell-based, human; conditions: 72 hours
Experimental: (§1) Treatment of Ewing's sarcoma with NVX-412. The TC71luc and TC32luc Ewing tumor cell lines stably express the luciferase gene. Cells were seeded into 96-well plates 24 hours before treating with the active compound to allow attachment. Cells were treated with NVX-412 for 72 hours. Serial dilutions of NVX-412 were prepared in medium from a 10 μM stock solution in DMSO. […] After 72 hours, cell viability was measured by luminescence using a Saphire2 plate reader.

[3] = system: TC32luc Ewing tumor cell line; assay: Ewing's sarcoma cell viability by luminescence, TC32luc; type: cell-based, human; conditions: 72 hours
Experimental: as §1

O=C(NNc1nc2cc(F)ccc2n2cccc12)c1cnccn1.O=C(O)C(=O)O [NVX-412, N′-(7-fluoropyrrolo[1,2a]quinoxalin-4-yl)pyrazine-2-carbohydrazide oxalic acid co-crystal]
GI50 ([1]; almost all cell lines tested, 48 hours incubation): nanomolar range | inhibition of tumor cell growth ([1]; cancer cell lines tested, summary): pronounced inhibition of tumor cell growth | effectiveness against cancer cell lines ([1]; sarcoma, melanoma, and CNS cancer cell lines, summary): very effective | fraction of cells remaining after three days, mean ([2]; TC71, NVX-412 5 nM): 1.00 | fraction of cells remaining after three days, mean ([2]; TC71, NVX-412 10 nM): 0.97 | fraction of cells remaining after three days, mean ([2]; TC71, NVX-412 25 nM): 0.95 | fraction of cells remaining after three days, mean ([2]; TC71, NVX-412 50 nM): 0.92 | fraction of cells remaining after three days, mean ([2]; TC71, NVX-412 75 nM): 0.76 | fraction of cells remaining after three days, mean ([2]; TC71, NVX-412 100 nM): 0.50 | fraction of cells remaining after three days, mean ([2]; TC71, NVX-412 150 nM): 0.21 | fraction of cells remaining after three days, mean ([2]; TC71, NVX-412 200 nM): 0.08 | fraction of cells remaining after three days, mean ([2]; TC71, NVX-412 375 nM): 0.01 | fraction of cells remaining after three days, mean ([3]; TC32, NVX-412 5 nM): 1.03 | fraction of cells remaining after three days, mean ([3]; TC32, NVX-412 10 nM): 0.96 | fraction of cells remaining after three days, mean ([3]; TC32, NVX-412 25 nM): 0.95 | fraction of cells remaining after three days, mean ([3]; TC32, NVX-412 50 nM): 0.91 | fraction of cells remaining after three days, mean ([3]; TC32, NVX-412 75 nM): 0.69 | fraction of cells remaining after three days, mean ([3]; TC32, NVX-412 100 nM): 0.44 | fraction of cells remaining after three days, mean ([3]; TC32, NVX-412 150 nM): 0.15 | fraction of cells remaining after three days, mean ([3]; TC32, NVX-412 200 nM): 0.06 | fraction of cells remaining after three days, mean ([3]; TC32, NVX-412 375 nM): 0.01
